Results: the supplement of paper PMC4862054
One block for each compound: values may come before it.

What was measured:
BT-474 [1] = settings: 72 h
Method in brief: (§1)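 EC50 was fitted from dose-response curves and censored at the highest concentration tested. To build those curves, breast cancer cell lines (20 µl suspension) were seeded into 384-well plates containing compound at 5 concentrations in 10-fold steps over a compound-specific 10,000-fold range and incubated for 72 h. Readouts were CellTox Green fluorescence (485/520 nm) for cell death and then CellTiter-Glo luminescence for viability, with each plate normalised to 0.1 % DMSO and a positive kill control.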

HDQ-P1 [2] = settings: 72 h
Method in brief: as §1

MDA-MB-468 [3] = settings: 72 h
Method in brief: as §1

BT-549 = assay: normalised viability (% of control), CellTiter-Blue; higher = more viable cells (about 100 = DMSO control); settings: incubation time: 72 h
Method in brief: (§2)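 Vehicle (100) and a positive kill control (0) anchored the normalisation of each plate, and Z'-factor was used for quality control. Breast cancer cell lines in 20 µl suspension were incubated 72 h over compound in 5 µl medium in 384-well plates, followed by CellTiter-Blue at 560/590 nm. The value is normalised viability at a single listed concentration of the series.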

MDA-MB-453 = assay: as above; settings: incubation time: 72 h
Method in brief: as §2

CAL-148 = assay: as above; settings: incubation time: 72 h
Method in brief: as §2

MFM-223 = assay: as above; settings: incubation time: 72 h
Method in brief: as §2

CAL-85-1 = assay: as above; settings: incubation time: 72 h
Method in brief: as §2

HCC1599 = assay: as above; settings: incubation time: 72 h
Method in brief: as §2

BT-474 [4] = assay: as above; settings: incubation time: 72 h
Method in brief: as §2

MDA-MB-231 = assay: as above; settings: incubation time: 72 h
Method in brief: as §2

HCC1143 = assay: as above; settings: incubation time: 72 h
Method in brief: as §2

HDQ-P1 [5] = assay: as above; settings: incubation time: 72 h
Method in brief: as §2

SK-BR-3 = assay: as above; settings: incubation time: 72 h
Method in brief: as §2

Hs578T = assay: as above; settings: incubation time: 72 h
Method in brief: as §2

MDA-MB-468 [6] = assay: as above; settings: incubation time: 72 h
Method in brief: as §2

MDA-MB-436 = assay: as above; settings: incubation time: 72 h
Method in brief: as §2

CAL-120 = assay: as above; settings: incubation time: 72 h
Method in brief: as §2

CAL-51 = assay: as above; settings: incubation time: 72 h
Method in brief: as §2

HCC1937 = assay: as above; settings: incubation time: 72 h
Method in brief: as §2

DU-4475 = assay: as above; settings: incubation time: 72 h
Method in brief: as §2

EC50, CellTiter-Glo (BT-474 [1]): 1.09 µM
EC50, CellTiter-Glo (MDA-MB-468 [3]): 4.14 µM
SMILES: C[C@]1(O)C[C@@H](c2nc(-c3ccc4ccc(-c5ccccc5)nc4c3)c3c(N)nccn32)C1 [Linsitinib]
EC50, CellTiter-Glo (HDQ-P1 [2]): 1.01 µM

EC50, CellTiter-Glo (BT-474 [1]): 0.0261 µM
EC50, CellTiter-Glo (MDA-MB-468 [3]): 0.0274 µM
SMILES: Cc1ccc([N+](=O)[O-])cc1S(=O)(=O)N(C)/N=C/c1cnc2ccc(Br)cn12 [PIK-75]
EC50, CellTiter-Glo (HDQ-P1 [2]): 0.0325 µM

EC50, CellTiter-Glo (BT-474 [1]): 0.352 µM
EC50, CellTiter-Glo (MDA-MB-468 [3]): 0.181 µM
SMILES: CC(=O)c1c(C)c2cnc(Nc3ccc(N4CCNCC4)cn3)nc2n(C2CCCC2)c1=O [Palbociclib]

EC50, CellTiter-Glo (BT-474 [1]): 0.644 µM
EC50, CellTiter-Glo (MDA-MB-468 [3]): 2.24 µM
SMILES: COc1cc(F)c(F)c(Nc2ccc(I)cc2F)c1NS(=O)(=O)C1(C[C@H](O)CO)CC1 [Refametinib]
EC50, CellTiter-Glo (HDQ-P1 [2]): 0.119 µM

EC50, CellTiter-Glo (BT-474 [1]): 0.112 µM
EC50, CellTiter-Glo (MDA-MB-468 [3]): 0.036 µM
SMILES: CC(C)(C)c1cnc(CSc2cnc(NC(=O)C3CCNCC3)s2)o1 [SNS-032]
EC50, CellTiter-Glo (HDQ-P1 [2]): 0.05 µM
normalised viability (BT-549; 10 nM): 94.8%
normalised viability (BT-549; 1000 nM): 11.6%
normalised viability (BT-549; 10000 nM): 9.46%
normalised viability (MDA-MB-453; 3 nM): 118%
normalised viability (MDA-MB-453; 30 nM): 92.7%
normalised viability (MDA-MB-453; 100 nM): 70.8%
normalised viability (CAL-148; 3 nM): 91.9%
normalised viability (CAL-148; 30 nM): 99.5%
normalised viability (CAL-148; 100 nM): 77.1%
normalised viability (MFM-223; 10 nM): 87.9%
normalised viability (MFM-223; 1000 nM): 14.2%
normalised viability (MFM-223; 10000 nM): 20%
normalised viability (CAL-85-1; 3 nM): 88.8%
normalised viability (CAL-85-1; 30 nM): 78.5%
normalised viability (CAL-85-1; 100 nM): 70.1%
normalised viability (HCC1599; 10 nM): 113%
normalised viability (HCC1599; 1000 nM): 17.4%
normalised viability (HCC1599; 10000 nM): 22.4%
normalised viability (BT-474 [4]; 10 nM): 119%
normalised viability (BT-474 [4]; 1000 nM): 26.5%
normalised viability (BT-474 [4]; 10000 nM): 35%
normalised viability (MDA-MB-231; 10 nM): 106%
normalised viability (MDA-MB-231; 1000 nM): 8.24%
normalised viability (MDA-MB-231; 10000 nM): 7.03%
normalised viability (HCC1143; 10 nM): 79.7%
normalised viability (HCC1143; 1000 nM): 17.5%
normalised viability (HCC1143; 10000 nM): 16.6%
normalised viability (HDQ-P1 [5]; 3 nM): 113%
normalised viability (HDQ-P1 [5]; 30 nM): 93.5%
normalised viability (HDQ-P1 [5]; 100 nM): 63%
normalised viability (SK-BR-3; 10 nM): 98.4%
normalised viability (SK-BR-3; 1000 nM): 5.34%
normalised viability (SK-BR-3; 10000 nM): 4.75%
normalised viability (Hs578T; 10 nM): 104%
normalised viability (Hs578T; 1000 nM): 5.65%
normalised viability (Hs578T; 10000 nM): 4%
normalised viability (MDA-MB-468 [6]; 10 nM): 114%
normalised viability (MDA-MB-468 [6]; 1000 nM): 11.3%
normalised viability (MDA-MB-468 [6]; 10000 nM): 5.84%
normalised viability (MDA-MB-436; 10 nM): 105%
normalised viability (MDA-MB-436; 1000 nM): 16.2%
normalised viability (MDA-MB-436; 10000 nM): 15.1%
normalised viability (CAL-120; 10 nM): 84.1%
normalised viability (CAL-120; 1000 nM): 12.9%
normalised viability (CAL-120; 10000 nM): 11.8%
normalised viability (CAL-51; 3 nM): 113%
normalised viability (CAL-51; 30 nM): 107%
normalised viability (CAL-51; 100 nM): 107%
normalised viability (HCC1937; 10 nM): 138%
normalised viability (HCC1937; 1000 nM): 23.1%
normalised viability (HCC1937; 10000 nM): 17.1%
normalised viability (DU-4475; 3 nM): 101%
normalised viability (DU-4475; 30 nM): 86.9%
normalised viability (DU-4475; 100 nM): 87.5%
